Results taken from patent US4182707A, “Somatostatin analogues” (American Home Products Corporation, priority 1978, dated 1980).
Positions of bridges follow the written chain, without caps; N, C: chain ends. Non-standard residues stand in square brackets, D forms with d. Residues, ends and D or L forms follow the SMILES beside them.

What was measured:
[1] = tested on: growth hormone; test: Arginine-stimulated growth hormone secretion in Nembutal-anesthetized rats; type: in vivo, Albino male rats; conditions: 100 micrograms per kilogram subcutaneous; arginine into the heart 10 min later, blood 5 min after arginine; p<0.01; control 122±26 ng/ml
Experimental: The activity of the product of the preceding preparatory example, (des-Ala^1 -Gly^2, D-Lys^4, Trp^5, D-Trp^8)Somatostatin was determined by the following procedure:
Albino male rats were administered Nembutal intraperitoneally at a dose of 50 milligrams per kilogram. Fifteen minutes later a subcutaneous injection of the test compound or physiological saline was administered. Ten minutes later 0.5 millileters of arginine (300 milligrams per milliliter, pH 7.2) is injected into the heart. Five minutes after receipt of the arginine the rats are decapitated and blood is collected into trasylol-EDTA. […] Thus, (des-Ala^1 -Gly^2, D-Lys^4, Trp^5, D-Trp^8)Somatostatin, representative of the corresponding D-Arg^4,D-His^4, D-Orn^4, Phe^5, Tyr^5, Leu^5 and Met^5 analogues, their (Ala^1 -Gly^2)somatostatin analogues and the corresponding L-Trp^8 and D-Cys^14 analogues, is an effective agent for selectively reducing secretion of growth hormone at relatively high doses.

[2] = tested on: total acid output; test: Four hour pylorus ligated rat test (Shay et al.), anti-secretory activity; type: in vivo; conditions: dosage between 0.25 and 2.0 mg/kg, p<0.05
Description: Therefore, the product of Example 2 is also useful as an anti-secretory agent for the treatment of peptic ulcer disease.

SMILES: C[C@@H](O)[C@@H]1NC(=O)[C@H](Cc2ccccc2)NC(=O)[C@H]([C@@H](C)O)NC(=O)[C@H](CCCCN)NC(=O)[C@@H](Cc2c[nH]c3ccccc23)NC(=O)[C@H](Cc2ccccc2)NC(=O)[C@H](Cc2ccccc2)NC(=O)[C@H](Cc2c[nH]c3ccccc23)NC(=O)[C@@H](CCCCN)NC(=O)[C@@H](N)CSSC[C@@H](C(=O)O)NC(=O)[C@H](CO)NC1=O [Example 2, L-cysteinyl-D-lysyl-L-tryptophyl-L-phenylalanyl-L-phenylalanyl-D-tryptophyl-L-lysyl-L-threonyl-L-phenylalanyl-L-threonyl-L-seryl-L-cysteine cyclic (1-12) disulfide] (H-C[dK]WFF[dW]KTFTSC-OH; disulfide 1-12)
- growth hormone in blood [1]: 24 ± 7 ng/mL
- inhibition of total acid output [2]: ~50%
